Results from patent US11655252B2, “Aminopyrimidinyl derivatives” (Pfizer Inc., priority 2020, dated 2023).

Columns and labels:
JAK1 = JAK1 (Homo sapiens (Human), UniProt P23458); test: JAK Family Caliper Enzyme Assay (JAK1); format: biochemical; conditions: recombinant human kinase domain, 1 mM ATP
Method: (§1) JAK Family Caliper Enzyme Assay
(§2) Compounds of the invention were evaluated by in vitro methods to determine their respective ability to inhibit the JAK kinases (TYK2, JAK1, JAK2, JAK3). Inhibitory activity was determined by using a microfluidic assay (LabChip 3000™ mobility shift technology, Caliper Life Science) to monitor phosphorylation of a synthetic peptide by the recombinant human kinase domain of each of the four members of the JAK family, JAK1, JAK2, JAK3 and TYK2. Reaction mixtures contained 1 μM of a fluorescently labeled synthetic peptide, a concentration less than the apparent Km, and 1 mM ATP.
(§3) Compounds in DMSO solution were added to a 384-well plate. Reaction mixtures contained 10 mM HEPES, pH 7.4, 10 mM MgCl2, 0.01% BSA, 0.0005% Tween 20™, 1 mM ATP and 1 μM peptide substrate. The JAK1 and TYK2 assays contained 1 μM of the IRStide peptide (5FAM-KKSRGDYMTMQID) and the JAK2 and JAK3 assays contained 1 μM of the JAKtide peptide (FITC-KGGEEEEYFELVKK). The assays were initiated by the addition of 20 nM JAK1, 1 nM JAK2, 1 nM JAK or 1 nM TYK2 enzyme and were incubated at room temperature for three hours for JAK1, 60 minutes for JAK2, 75 minutes for JAK3 or 135 minutes for TYK2. Enzyme concentrations and incubation times were optimized for each new enzyme preps and were modified slightly over time to ensure 20% to 30% phosphorylation. The assays were stopped with 15 μL of 180 mM HEPES, pH 7.4, 20 mM EDTA, and 0.2% Coating Reagent 3. The assay plates were placed on a Caliper Life Science LC3000 instrument, and each well was sampled using appropriate separation conditions to measure the unphosphorylated and phosphorylated peptide.
(§4) The data was collected using the HTS Well Analyzer software from Caliper Life Sciences. The data output for data analysis is the percent product converted calculated on peak height (Equation 1). % product converted=100*((product)/(product+substrate)) Equation 1: […]
(§5) The percent effect at each compound concentration was calculated based on the positive and negative control well contained within each assay plate (Equation 2). […] The negative control wells contained DMSO alone (at the same concentration as the compound wells) that was used to set the baseline activity in the assay (i.e., uninhibited JAK1, JAK2, JAK3 or TYK2). % effect=100*((sample well−negative control)/(positive control−negative control)) Equation 2: […]
(§6) The percent effect was plotted against the compound concentration compound. An unconstrained sigmoid curve was fitted using a 4 parameter logistic model and the compound concentration required for 50% inhibition (IC50) was determined (Equation 3). y=((max−min)/(1+((x/IC50)^s)))+min Equation 3: […]

JAK2 = JAK2 (Homo sapiens (Human), UniProt O60674); test: JAK Family Caliper Enzyme Assay (JAK2); format: biochemical; conditions: recombinant human kinase domain, 1 mM ATP
Sequence of JAK2 (O60674 849-1124): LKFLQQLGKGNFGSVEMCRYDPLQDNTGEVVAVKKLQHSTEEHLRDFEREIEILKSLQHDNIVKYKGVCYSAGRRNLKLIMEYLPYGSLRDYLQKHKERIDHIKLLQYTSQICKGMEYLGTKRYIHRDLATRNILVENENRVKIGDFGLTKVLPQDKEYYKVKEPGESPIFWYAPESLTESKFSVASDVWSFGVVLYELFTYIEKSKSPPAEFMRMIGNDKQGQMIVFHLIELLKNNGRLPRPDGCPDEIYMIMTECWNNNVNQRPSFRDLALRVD
Method: as §1, §2, §3, §4, §5, §6

JAK3 = JAK3 (Homo sapiens (Human), UniProt P52333); test: JAK Family Caliper Enzyme Assay (JAK3); format: biochemical; conditions: recombinant human kinase domain, 1 mM ATP
Sequence of JAK3 (P52333 822-1111): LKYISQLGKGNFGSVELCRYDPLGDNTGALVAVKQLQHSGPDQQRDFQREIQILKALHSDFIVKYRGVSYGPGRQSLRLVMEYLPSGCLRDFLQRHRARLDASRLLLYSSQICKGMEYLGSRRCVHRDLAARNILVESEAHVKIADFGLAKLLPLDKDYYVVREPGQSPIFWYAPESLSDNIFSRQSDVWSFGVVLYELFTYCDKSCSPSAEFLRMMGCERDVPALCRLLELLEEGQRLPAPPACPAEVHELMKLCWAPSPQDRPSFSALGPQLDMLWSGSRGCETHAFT
Method: as §1, §2, §3, §4
The percent effect at each compound concentration was calculated based on the positive and negative control well contained within each assay plate (Equation 2). […]

TYK2 = TYK2 (Homo sapiens (Human), UniProt P29597); test: JAK Family Caliper Enzyme Assay (TYK2); format: biochemical; conditions: recombinant human kinase domain, 1 mM ATP
Sequence of TYK2 (P29597 897-1176): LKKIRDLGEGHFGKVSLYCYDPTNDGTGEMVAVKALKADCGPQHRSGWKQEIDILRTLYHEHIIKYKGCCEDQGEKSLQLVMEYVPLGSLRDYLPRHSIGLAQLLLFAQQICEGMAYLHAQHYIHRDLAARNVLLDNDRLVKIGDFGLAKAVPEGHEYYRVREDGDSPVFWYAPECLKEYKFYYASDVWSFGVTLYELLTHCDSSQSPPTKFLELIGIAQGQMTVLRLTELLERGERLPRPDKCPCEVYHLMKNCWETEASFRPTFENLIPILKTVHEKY
Method: as §1, §2, §3, §4, §5, §6

[1] = tested on: CXCL10 biomarker in Th2 stimulated ex vivo human skin; test: Biomarker Modulation in Th2 Stimulated Ex Vivo Human Skin Assay; format: cell-based; conditions: 1% w/w formulation applied topically, qPCR
Method: Biomarker Modulation in Th2 Stimulated Ex Vivo Human Skin Assay Compounds of this invention were assessed for their ability to modulate CXCL10 biomarker in Th2 stimulated ex vivo human skin following topical application. […] Freshly excised human skin from surgery specimens was cut with a dermatome to 750 μm thickness and mounted in a 7 mm static Franz cell for tissue culture such that the upper surface of the skin was exposed to air in the Franz cell donor chamber, and the bottom (dermis) was exposed to Cornification medium. A total of two skin donors were used (n=6 per treatment per donor). Incubations were carried out in a standard tissue culture incubator. Compound was dissolved in the indicated formulation at a concentration of 1% w/w and added apically to the skin at 10 μL per sample (approximately 18 μL per cm^2) at 4-6 replicates per donor. After 16 h media was replaced with stimulation cocktail containing anti-CD3 mAb, anti-CD28 mAb, IL-2, IL-4, IL-33 and TSLP. Incubation was continued for additional 24 hr at 37° C. Then skin was harvested, treated with RNALater solution and processed for RNA extraction and qPCR that was run in duplicates. MMP12, CCL26, CXCL10 and Filaggrin may be measured. Results for each sample were normalized to its own GAPDH internal standard which was not appreciably affected by stimulus or compound. Fold change was normalized to untreated sample.

[2] = tested on: interferon alpha signalling (TYK2 and JAK1), pSTAT3 in human whole blood lymphocytes; test: HWB INF Alpha Induced STAT3 Phosphorylation Assay; format: cell-based; conditions: Lymphocyte, IFN alpha 5000 U/ml, flow cytometry
Method: HWB INF Alpha Induced STAT3 Phosphorylation Assay
Compounds of this invention were assessed for their ability to inhibit interferon alpha signalling in a human whole blood flow cytometry assay. Interferon alpha signals through TYK2 and JAK1. Test articles were prepared as 30 mM stocks in 100% DMSO, and then diluted to 10 mM. An 11-point 3 dilution series was created in DMSO with a top concentration of […]. Further dilution was done by adding 4 μL of the above test article solutions into 96 μL of PBS with a top concentration of 400 μM. Human whole blood (HWB) was collected from healthy donors via vein puncture into Vacutainer™ collection tubes containing sodium heparin (Catalog No. 366480, Becton Dickinson, Franklin Lakes, N.J.). Blood was warmed to 37° C. prior to use. […]
Samples were transferred to 96-well U bottom plates (Falcon #353077) and flow cytometric analysis was performed on an LSRFortessa equipped with a HTS plate loader (BD Biosciences). […] Background fluorescence was defined using unstimulated cells and a gate was placed at the foot of the peak to include ˜0.5% gated population. […] Relative fluorescence unit (RFU), which measures the level of phospho STAT, was calculated by multiplying the percent positive population and its mean fluorescence. […] Inhibition curves and IC50 values were determined using the Prism version 7 software (GraphPad, La Jolla, Calif.).

[3] = In Vitro Human Hepatocyte Clearance Assay; format: in vitro ADME; conditions: cryopreserved human hepatocytes in suspension, 0.5 million cells/mL, 1 μM test compound, read-out: HHEP CLint, app (μL/min/million cells)
Method: In Vitro Human Hepatocyte Clearance Assay A high-throughput human hepatocyte substrate-depletion assay was performed in a 384-well formatted as described previously [Di et al., Eur. J. Med. Chem., 2012, 57, 441]. Briefly, the cryopreserved human hepatocytes were thawed and resuspended in Williams' E medium supplemented with HEPES and Na2CO3. The cells were counted using the trypan blue exclusion method. Test compounds were added to suspended human hepatocytes in Williams' E medium buffer and incubated at 37° C. in a humidified CO2 incubator (75% relative humidity, 5% CO2/air) for 4 hours. The final incubation contained 0.5 million cells/mL and 1 μM test compound in 15 μL total volume with 0.1% DMSO. At various time points (0, 3, 10, 30, 60, 120, and 240 minutes), an aliquot of the sample was taken and quenched with cold acetonitrile containing internal standard. The samples were centrifuged at 3000 rpm for 10 minutes at 4° C., and the supernatants were transferred to new plates, which were sealed before performing LC-MS/MS analysis. The apparent metabolic intrinsic clearance (CLint, met, app) was determined based on the substrate-depletion half-life estimated from the ratio of the peak area response of each compound to that of the internal standard, as described earlier [Di et al., Eur. J. Med. Chem., 2012, 57, 441].

Sequence of JAK1 (P23458 875-1153): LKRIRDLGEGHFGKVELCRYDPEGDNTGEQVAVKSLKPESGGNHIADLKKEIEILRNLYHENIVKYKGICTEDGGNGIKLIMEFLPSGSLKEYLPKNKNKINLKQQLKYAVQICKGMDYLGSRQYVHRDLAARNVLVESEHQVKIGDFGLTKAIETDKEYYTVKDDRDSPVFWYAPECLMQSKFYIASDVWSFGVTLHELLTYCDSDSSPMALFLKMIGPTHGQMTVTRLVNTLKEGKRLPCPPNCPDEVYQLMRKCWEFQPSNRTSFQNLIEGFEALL

Row | IC50 (JAK1) | IC50 (JAK2) | IC50 (JAK3) | IC50 (TYK2) | SMILES | % inhibition CXCL10 [1] | IC50 [2] | hepatocyte CLint at 1 μM [3]
1 | 59 nM | 223 nM | > 10000 nM | 82 nM | C[C@@H](O)Cn1cc(Nc2nccc(N3C[C@H]4CC[C@@H](C3)N4C(=O)[C@@H]3CC3(F)F)n2)cn1 [IB, ((S)-2,2-Difluorocyclopropyl)((1R,5S)-3-(2-((1-((R)-2-hydroxypropyl)-1H-pyrazol-4-yl)amino)pyrimidin-4-yl)-3,8-diazabicyclo[3.2.1]octan-8-yl)methanone] |  |  | 
2 | 44 nM | 139 nM |  | 65 nM | C[C@H](O)Cn1cc(Nc2nccc(N3C[C@H]4CC[C@@H](C3)N4C(=O)[C@@H]3CC3(F)F)n2)cn1 [IC, ((S)-2,2-Difluorocyclopropyl)((1R,5S)-3-(2-((1-((S)-2-hydroxypropyl)-1H-pyrazol-4-yl)amino)pyrimidin-4-yl)-3,8-diazabicyclo[3.2.1]octan-8-yl)methanone] |  |  | 
3 | 47 nM | 81 nM | > 9280 nM | 30 nM | O=C([C@@H]1CC1(F)F)N1[C@@H]2CC[C@H]1CN(c1ccnc(Nc3cnn(CCCO)c3)n1)C2 [ID] |  |  | 
4 |  |  |  |  | Cn1cc(Nc2nccc(N3C[C@H]4CC[C@@H](C3)N4C(=O)[C@@H]3CC3(F)F)n2)cn1 [II, ((S)-2,2-difluorocyclopropyl)-((1R,5S)-3-(2-((1-methyl-1H-pyrazol-4-yl)amino)pyrimidin-4-yl)-3,8-diazabicyclo[3.2.1]octan-8-yl)methanone, reference compound] | 72.4% |  | < 0.6 µL/min/1e6 cells

Row | SMILES | IC50 (JAK1) | IC50 (JAK2) | IC50 (JAK3) | IC50 (TYK2) | % inhibition CXCL10 [1] | IC50 [2] | hepatocyte CLint at 1 μM [3]
5 | CCCn1cc(Nc2nccc(N3C[C@H]4CC[C@@H](C3)N4C(=O)[C@@H]3CC3(F)F)n2)cn1 [IA, ((S)-2,2-Difluorocyclopropyl)((1R,5S)-3-(2-((1-propyl-1H-pyrazol-4-yl)amino)pyrimidin-4-yl)-3,8-diazabicyclo[3.2.1]octan-8-yl)methanone] | 33 nM | 80 nM | > 9580 nM | 37 nM | 94.2% | 66 nM | 8.6 µL/min/1e6 cells
